# Experimental data reported in publication PMC8691750, “Euphorbia Factor L2 ameliorates the Progression of K/BxN Serum-Induced Arthritis by Blocking TLR7 Mediated IRAK4/IKKβ/IRF5 and NF-kB Signaling Pathways” (Frontiers in Pharmacology, 2021).
# Legend:
# [1] = tested on: TNF-α, IL-4, IL-17A, IL-1β and IL-6 in serum; experiment: Cytokines in sera of STA mice (CBA Multiplex kit, ELISA); type: in vivo, C57BL/6 mice; conditions: STA mice; DEX 30 mg/kg gavage
# Description: (§1) K/BxN serum was collected from K/BxN mice at 8 weeks of age, pooled, aliquoted and stored at -20 °C. K/BxN serum-transfer arthritis (STA) model was induced by intraperitoneal (i.p.) application of 150 μL of serum at day 0. Clinical score for arthritis severity was assessed using a 0–4 point scale for each paw at various time points (0–16 total score) as described previously ([Luo et al., 2011]). 8-week old male C57BL/6 mice were purchased from Dashuo Animal Center (China, Chengdu), maintained at 25°C, and exposed to 12-h light and dark cycles. Mice were fed with standard laboratory chow and water with 1 week of acclimatization. Naive mice were used as the control group. Except the control mice, all mice were i. p. injected with 150 μL of serum, then randomly divided into the following groups and treated with different compounds daily for the consecutive 8 days: 1) STA group; 2) Solvent control group, mice were gavaged with the solvent; 3) Dexamethasone (DEX) group, mice were gavaged with 30 mg/kg DEX; 4) EFL2 group 1, mice were gavaged with 40 mg/kg EFL2; 5) EFL2 group 2, mice were intraperitoneally injected with 15 mg/kg EFL2; 6) EFL2 group 3, […] were intraperitoneally injected with 40 mg/kg EFL2. […] All animal experiments were conducted in accordance with ethical regulation for animal care and use in China.
# (§2) IL-4, IL-17A and TNF-α in sera from different group mice were measured using CBA Multiplex kit (BD, United States). The concentrations of IL-1β and IL-6 in serum or supernatant were detected by ELISA Kit (MULTI SCIENCES, China) according to the manufacturers’ instructions.
# [2] = tested on: K/BxN serum-transfer arthritis (STA) model; experiment: K/BxN serum-transfer arthritis (STA) model, arthritic index / clinical score; type: in vivo, C57BL/6 mice; conditions: STA mice; DEX 30 mg/kg gavage daily
# Description: as §1
# [3] = tested on: synovial hyperplasia and articular inflammatory cells infiltration in knee joints; experiment: Histological assessment (H&E) of knee joints of STA mice; type: in vivo, C57BL/6 mice; conditions: DEX 30 mg/kg gavage
# Description: as §1
# The left knee joints were removed on day 13 post STA and fixed in 4% formaldehyde overnight at 4°C. The tissues were decalcified in EDTA and sectioned after embedding in paraffin. 5 μm sections were deparaffinized with xylene, re-hydrated with 100, 95 and 80% ethanol and then stained with hematoxylin and eosin (H&E). Histopathological changes in the knee joints were measured using a semiquantitative scoring system (0–4 scale) to assess synovial hyperplasia and articular inflammatory cells infiltration as previously described ([Yamanishi et al., 2002]).
# [4] = tested on: TLR7 (R837) / TLR3 (poly:IC) induced cytokine production in RAW264.7 cells; experiment: ELISA of IL-1β and IL-6 in supernatant of R837 and/or poly:IC stimulated RAW264.7 cells; type: cell-based, mouse
# Description: (§3) RAW264.7 cells (5×10^5/ml), BMDMs (5×10^5/ml) and PBMCs (2×10^6/ml) were plated in 96-well plates and incubated overnight. […] For the anti-inflammatory molecular mechanism study, RAW264.7 cells (5×10^5/ml) were plated in 96-well plates and stimulated with R837 (20 μg/ml) with or without the addition of NF-κB inhibitor (JSH-23, […]) for 24 h. After 24 h, the culture supernatant was collected for cytokines measurements.
# as §2
# [5] = tested on: TLR7 (R837) / TLR3 (poly:IC) induced cytokine production in BMDMs; experiment: ELISA of IL-1β and IL-6 in supernatant of R837 and/or poly:IC stimulated BMDMs; type: cell-based, C57BL/6 mice
# Description: (§4) RAW264.7 cells, a mouse macrophage cell line, were cultured in DMEM medium containing 10% fetal bovine serum (FBS), 1% penicillin-streptomycin and maintained at 37 °C in 5% CO2 humidified air. Bone marrow-derived macrophages (BMDMs) generation was performed as following description. In brief, bone marrow cells were harvested from tibias and femurs of C57BL/6 mice and differentiated for 7 days in DMEM medium supplemented with 10% FBS, 1% penicillin-streptomycin and 50 ng/ml M-CSF. For human peripheral blood mononuclear cells (PBMCs) preparation, 5 ml peripheral venous blood was obtained from healthy donors in West China Hospital. PBMCs were isolated with Human Lymphocyte Separation Medium (LTS1077, Tian Jing, China) according to the manufacturer’s instructions. The experimental protocols were performed according to the approved guidelines established by the Institutional Human Research Subject Protection Committee of the Ethics Committee of West China Hospital, Sichuan University, China.
# as §3, §2
# [6] = tested on: TLR7-mediated NF-κB signaling pathway (IKKα/β, IκBα, p65); experiment: Western blot, NF-κB pathway in R837-stimulated RAW264.7 cells; type: cell-based, mouse; conditions: RAW264.7 cells; R837 alone
# Description: (§5) RAW264.7 cells (2×10^6 cells/well) were plated into 6-well plates and then incubated at 37°C in 5% CO2 for 24 h. After incubated with various concentrations of EFL2 (1, 5 and 10 µM) for 1 h, cells were then stimulated by R837 (20 μg/ml) for 30 min. Cell lysates were prepared by direct lysis in 20 µL IP buffer (Beyotime Biotechnology, Shanghai, China). After obtaining the whole cell extracts, the cytosolic and nuclear were seperated using Nuclear and Cytoplasmic Protein Extraction Kit (Beyotime Biotechnology, Shanghai, China). BCA Protein Assay Kit (Beyotime Biotechnology, Nantong, China) was applied to determine the protein concentrations. The bands corresponding to p- IKKα/β, IKKα/β, p-IκBα, IκBα, p-p65, p65, p-IRAK4, IRAK4, p-IKKβ, IKKβ, p-IRF5, IRF5, β-actin and Lamin B were visualized using a Western Blot Detection Chemiluminescence Kit (Merck). Protein extracted from the total lysates/cytoplasm and nucleus was quantified in relation to β-actin and Lamin B bands, respectively.
# (§6) The antibodies used in the experiments were as follows: rabbit anti-mouse IKKα/β polyclonal antibody (1:1,000, Abways, China), rabbit anti-mouse IκBα polyclonal antibody (1:1,000, Abgent, China), rabbit anti-mouse p65 polyclonal antibody (1:1,000, Abgent, China), rabbit anti-mouse phosphorylated IKKα (Ser176)/β (Ser177) (1:1,000, Abways, China), rabbit anti-mouse phosphorylated IκBα (1:1,000, Abcam, United States), rabbit anti-mouse phosphorylated p65 (1:1,000, Abcam, United States), rabbit anti-mouse IRAK4 polyclonal antibody (1:1,000, Proteintech, United States), rabbit anti-mouse phosphorylated IRAK4 (Thr345/Ser346) (1:1,000, Affinity, United States), rabbit anti-mouse IKKβ polyclonal antibody (1:1,000, Abbkine, United States), rabbit anti-mouse phosphorylated IKKβ (Ser177) (1:1,000, Abways, China), rabbit anti-mouse IRF5 polyclonal antibody (1:1,000, Immunoway, United States), rabbit anti-mouse phosphorylated IRF5 (Ser437) (1:1,000, Affinity, United States), anti-mouse actin monoclonal antibody (1:20,000, Transgen, China) and rabbit anti-mouse LaminB monoclonal antibody (1:5,000, Abways, China).
# [7] = tested on: P65 and IRF5 translocation; experiment: Confocal microscopy of p65 and IRF5 translocation in RAW264.7 cells; type: cell-based, mouse; conditions: R837 alone, immunofluorescence staining
# Description: P65 and IRF5 translocation activity was analyzed by confocal microscopy. Briefly, 1×10^5 RAW264.7 cells were plated on coverslips overnight. Cells were pretreated with various concentrations of EFL2 (1, 5 and 10 µM) for 1 h and then stimulated by R837 (20 μg/ml) for 30 min. After washed with ice-cold PBS, RAW264.7 cells were fixed with 4% paraformaldehyde for 20 min at room temperature. The coverslips were washed with PBS with 0.2% tween 20 and blocked with 5% goat serum. Primary antibodies were applied to coverslips overnight at 4°C, followed by secondary antibodies incubation for 1 h at room temperature. After three times wash, coverslips were mounted with Fluoroshield™ with DAPI (Solarbio, China) and images were acquired by confocal microscopy (ZEISS, Germany). Primary antibody: rabbit anti-mouse IRF5 (1:800, Abcam, China); rabbit anti-mouse p65 (1:1,000, Abcam, China). Secondary antibody: Alexa eFluor®488 conjugated goat anti-rabbit IgG (1:2000, Thermo Fisher Scientific, Carlsbad, United States).
# [8] = tested on: TLR7-mediated IRAK4/IKKβ/IRF5 signaling pathway; experiment: Western blot, IRAK4/IKKβ/IRF5 in R837-stimulated RAW264.7 cells; type: cell-based, mouse; conditions: RAW264.7 cells; R837 alone
# Description: as §5, §6
# [9] = tested on: TLR7 (R837) induced cytokine production in PBMCs; experiment: ELISA of IL-1β and IL-6 in supernatant of R837 stimulated PBMCs; type: cell-based, human; conditions: PBMCs; R837 alone
# Description: as §4
# RAW264.7 cells (5×10^5/ml), BMDMs (5×10^5/ml) and PBMCs (2×10^6/ml) were plated in 96-well plates and incubated overnight. […]
# as §2
# [10] = RAW 264.7 cells, JSH-23 10 μM, 24 h
compound,measurement,setting,value
"C[C@@H]1C[C@H]2[C@@H]3CCC4=CC(=O)C=C[C@]4(C)[C@@]3(F)[C@@H](O)C[C@]2(C)[C@@]1(O)C(=O)CO [DEX, Dexamethasone, reference compound]",IL-1β level in sera,[1],significantly reduced
same,IL-6 level in sera,[1],significantly reduced
same,arthritis clinical scores,[2],significantly lowered
same,inflammatory status and inflamed synovium in joints,[3],significantly inhibited
Cc1ccc(NCCCc2ccccc2)c(N)c1 [JSH-23],R837-induced IL-1β production,[4]; [10],"to a large extent, blocked"
same,R837-induced IL-6 secretion,[4]; [10],only partially reduced
"CC(C)Cn1cnc2c(N)nc3ccccc3c21 [R837, imiquimod, reference compound]",IL-1β and IL-6 release in the supernatant,"[5]; BMDMs, R837 alone (20 μg/ml)",robustly induced
same,phosphorylation of IKKα/β and IκB-α,[6],rapidly occurs
same,IL-1β and IL-6 release in the supernatant,"[4]; RAW264.7 cells, R837 alone (20 μg/ml)",robustly induced
same,IRF5 translocation from cytoplasm to nucleus,[7],dramatically induced
same,phosphorylation of IRAK4 and IKKβ,[8],rapidly triggered
same,IL-1β and IL-6 release in the supernatant,[9],robustly induced
poly (I:C) [reference compound],IL-1β and IL-6 production,"[5]; BMDMs, poly (I:C) alone (1 μg/ml)",did not affect
same,IL-1β and IL-6 production,"[5]; R837-stimulated BMDMs, addition of poly (I:C)",did enhance
same,IL-1β and IL-6 production,"[4]; R837-stimulated RAW264.7 cells, addition of poly (I:C)",did enhance
same,IL-1β and IL-6 secretion,"[4]; RAW264.7 cells, poly (I:C) alone (1 μg/ml)",significantly increased
